Source: patent publication EP4768484A1, “HETEROCYCLIC FUSED RING COMPOUND, AND COMPOSITION AND USE THEREOF” (Shenzhen TargetRx, Inc., priority 2023, dated 2025)
pIC50: −log10 of the molar value.

Key:
Type in all cases: cell-based
Ba/F3 BCR-ABL1 WT = molecular target: T1, Ba/F3 BCR-ABL1 WT (Homo sapiens, UniProt P00519+P11274); experiment: Cell growth inhibitory activity assay (CellTiter-Glo), Ba/F3 BCR-ABL1 WT cells; conditions: 72 h, CTG cell viability
T1 construct: BCR (N-terminal fusion partner of the oncoprotein); expressed in transfected cells; host or cells: Ba/F3 (lentiviral transduction, monoclonal line)
Description: (§1) In this assay, the Celltiter-Glo (CTG) kit provided by Promega was used, and it is a homogeneous cell viability assay method. The cell viability of cultured cells was measured by quantifying ATP. K562 cells were purchased from Nanjing Kebai, product number CBP60529; Ba/F3 parental cells were purchased from RIKEN BRC, product number RCB0805; other cells containing BCR-ABL1 WT, BCR-ABL1 T315I, BCR-ABL1 T315M, BCR-ABL1 Y253H/E255K, BCR-ABL1 E255V/T3151, BCR-ABL1 A424T, BCR-ABL1 A337V, BCR-ABL1 P465S, BCR-ABL1 V468F, and BCR-ABL1 I502L were all monoclonal engineered cell lines obtained by transducting Ba/F3 parental cells with the lentivirus plasmids containing WT or corresponding mutated BCR-ABL1.
(§2) The steps of cell viability assay are as follows: • a) Cells in logarithmic growth phase were collected. Cell suspension was prepared and the cells were counted. Concentration of the cells was calculated. • b) The cell suspension was diluted to the required concentration and then added to the middle wells of a 96-well plate, and PBS was added to the edge wells. The wells with no cells and only culture medium were used as blank controls. • c) In addition to the cell plate used for compound analysis, another 96-well plate was prepared as a T0 plate, and 3-6 blank wells and 3-6 cell wells were added. The next day, CTG was used to test the cell viability as the T0 viability value of the cells. • d) The cell plate was incubated at 37 °C in a 5% CO2 incubator overnight. • e) The next day, each concentration of a compound subjected to a gradient dilution was added, and the cell plate was incubated at 37 °C in a 5% CO2 incubator for 72 h. The wells with no compound and only 0.5% DMSO were used as positive controls for cell growth. • f) CTG reagent (CellTiter-Glo kit) was added according to the manufacturer's instructions to test the cell viability value. • g) The plate was read using Biotek cytation3.0 microplate reader and the data were exported. • h) IC50 was calculated using GraphPad Prism 7.0 software.
(§3) The IC50 (half-maximal inhibitory concentration) of the compound was obtained using the following nonlinear fitting formula: Y = Bottom + (Top−Bottom)/(1+10^(∧)((LogIC50−X)*HillSlope)) [formula] • X: Log value of the compound concentration • Y: Inhibition rate (% inhibition) • Top: Maximum response • Bottom: Baseline response • HillSlope: Slope of the curve
(§4) The formula for calculating cell inhibition rate (inhibition rate %) was: [formula]

Ba/F3 parental cells = experiment: Cell growth inhibitory activity assay (CellTiter-Glo), Ba/F3 parental cells; conditions: Mus musculus, BaF3, 72 h, CTG cell viability, read-out: IC50 Ba/F3 BCR-ABL1 Parental
Description: as §1, §2, §3, §4

Ba/F3 BCR-ABL1 T315I = molecular target: T2, Ba/F3 BCR-ABL1 T315I (Homo sapiens, UniProt P00519+P11274, T315I); experiment: Cell growth inhibitory activity assay (CellTiter-Glo), Ba/F3 BCR-ABL1 T315I cells; conditions: 72 h, CTG cell viability
T2 construct: BCR (N-terminal fusion partner of the oncoprotein); expressed in transfected cells; host or cells: Ba/F3 (lentiviral transduction, monoclonal line)
Description: as §1, §2, §3, §4

K562 cells = experiment: Cell growth inhibitory activity assay (CellTiter-Glo), K562 cells; conditions: Homo sapiens, 72 h, CTG cell viability
Description: as §1, §2, §3, §4

| SMILES | pIC50 (Ba/F3 BCR-ABL1 WT) | pIC50 (Ba/F3 parental cells) | pIC50 (Ba/F3 BCR-ABL1 T315I) | pIC50 (K562 cells) |
| --- | --- | --- | --- | --- |
| O=C(Nc1ccc(OC(F)(F)Cl)cc1)c1cnc(N2CC[C@@H](F)C2)c(-c2cnc3c(c2)-c2nn(-c4nccc(-c5cccnc5)n4)cc2C3)c1 [T-9, (R)-N-(4-(chlorodifluoromethoxy)phenyl)-6-(3-fluoropyrrolidin-1-yl)-5-(2-(4-(pyridin-3-yl)pyrimidin-2-yl)-2,4-dihydropyrazolo[3',4':3,4]cyclopenta[1,2-b]pyridin-7-yl)nicotinamide] | ≥ 8.30 | < 6.00 | ≥ 8.30 | ≥ 8.30 |
| CC(C)n1ncc2c1-c1cc(-c3cc(C(=O)Nc4ccc(OC(F)(F)Cl)cc4)cnc3N3CC[C@@H](F)C3)cnc1C2 [T-10-A, (R)-N-(4-(chlorodifluoromethoxy)phenyl)-6-(3-fluoropyrrolidin-1-yl)-5-(1-isopropyl-1,4-dihydropyrazolo[3',4':3,4]cyclopenta[1,2-b]pyridin-7-yl)nicotinamide] | 7.30 to 8.30 | < 6.00 | 7.30 to 8.30 | ≥ 8.30 |
| CC(C)n1cc2c(n1)-c1cc(-c3cc(C(=O)Nc4ccc(OC(F)(F)Cl)cc4)cnc3N3CC[C@@H](F)C3)cnc1C2 [T-10-B, (R)-N-(4-(chlorodifluoromethoxy)phenyl)-6-(3-fluoropyrrolidin-1-yl)-5-(2-isopropyl-2,4-dihydropyrazolo[3',4':3,4]cyclopenta[1,2-b]pyridin-7-yl)nicotinamide] | ≥ 8.30 | < 6.00 | ≥ 8.30 | ≥ 8.30 |
| O=C(Nc1ccc(OC(F)(F)Cl)cc1)c1cnc(N2CC[C@H](F)C2)c(-c2cnc3c(c2)-c2nn(-c4ncc(F)cn4)cc2C3)c1 [T-13, (S)-N-(4-(chlorodifluoromethoxy)phenyl)-5-(2-(5-fluoropyrimidin-2-yl)-2,4-dihydropyrazolo[3',4':3,4]cyclopenta[1,2-b]pyridin-7-yl)-6-(3-fluoropyrrolidin-1-yl)nicotinamide] | ≥ 8.30 | < 6.00 | ≥ 8.30 | ≥ 8.30 |
| Cc1cnc(-n2cc3c(n2)-c2cc(-c4cc(C(=O)Nc5ccc(OC(F)(F)Cl)cc5)cnc4N4CC[C@@H](F)C4)cnc2C3)nc1 [T-14, (R)-N-(4-(chlorodifluoromethoxy)phenyl)-6-(3-fluoropyrrolidin-1-yl)-5-(2-(5-methylpyrimidin-2-yl)-2,4-dihydropyrazolo[3',4':3,4]cyclopenta[1,2-b]pyridin-7-yl)nicotinamide] | ≥ 8.30 | < 6.00 | ≥ 8.30 | ≥ 8.30 |
| O=C(Nc1ccc(OC(F)(F)Cl)cc1)c1cnc(N2CC[C@@H](F)C2)c(-c2cnc3c(c2)-c2nn(-c4ncc(C(F)(F)F)cn4)cc2C3)c1 [T-15, (R)-N-(4-(chlorodifluoromethoxy)phenyl)-6-(3-fluoropyrrolidin-1-yl)-5-(2-(5-(trifluoromethyl)pyrimidin-2-yl)-2,4-dihydropyrazolo[3',4':3,4]cyclopenta[1,2-b]pyridin-7-yl)nicotinamide] | ≥ 8.30 | < 6.00 | 7.30 to 8.30 | ≥ 8.30 |
| C[C@@H]1COCc2nc3cc(C(=O)Nc4ccc(OC(F)(F)Cl)cc4)cc(-c4cnc5c(c4)-c4nn(C)cc4C5)c3n21 [T-16, (R)-N-(4-(chlorodifluoromethoxy)phenyl)-4-methyl-6-(2-methyl-2,4-dihydropyrazolo[3',4':3,4]cyclopenta[1,2-b]pyridin-7-yl)-3,4-dihydro-1H-benzo[4,5]imidazo[2,1-c][1,4]oxazine-8-carboxamide] | ≥ 8.30 | < 6.00 | ≥ 8.30 | ≥ 8.30 |
| COc1cnc(-n2cc3c(n2)-c2cc(-c4cc(C(=O)Nc5ccc(OC(F)(F)Cl)cc5)cnc4N4CC[C@@H](F)C4)cnc2C3)nc1 [T-17, (R)-N-(4-(chlorodifluoromethoxy)phenyl)-6-(3-fluoropyrrolidin-1-yl)-5-(2-(5-methoxypyrimidin-2-yl)-2,4-dihydropyrazolo[3',4':3,4]cyclopenta[1,2-b]pyridin-7-yl)nicotinamide] | ≥ 8.30 | < 6.00 | ≥ 8.30 | ≥ 8.30 |
| N#Cc1ccc(-c2ccnc(-n3cc4c(n3)-c3cc(-c5cc(C(=O)Nc6ccc(OC(F)(F)Cl)cc6)cnc5N5CC[C@@H](F)C5)cnc3C4)n2)cn1 [T-19, (R)-N-(4-(chlorodifluoromethoxy)phenyl)-5-(2-(4-(6-cyanopyridin-3-yl)pyrimidin-2-yl)-2,4-dihydropyrazolo[3',4':3,4]cyclopenta[1,2-b]pyridin-7-yl)-6-(3-fluoropyrrolidin-1-yl)nicotinamide] | ≥ 8.30 | < 6.00 | ≥ 8.30 | ≥ 8.30 |
| O=C(Nc1ccc(OC(F)(F)Cl)cc1)c1cnc(N2CC[C@@H](F)C2)c(-c2cnc3c(c2)-c2nn(-c4nccc(-c5cncnc5)n4)cc2C3)c1 [T-22] | ≥ 8.30 | < 6.00 | ≥ 8.30 | ≥ 8.30 |
| CC(C)n1cnc2cc(C(=O)Nc3ccc(OC(F)(F)Cl)cc3)cc(-c3cnccn3)c21 [T-23, N-(4-(chlorodifluoromethoxy)phenyl)-1-isopropyl-7-(pyrazin-2-yl)-1H-benzo[d]imidazole-5-carboxamide] | ≥ 8.30 | < 6.00 | 6.00 to 7.30 | 7.30 to 8.30 |
| C[C@@H]1CCOc2nc3cc(C(=O)Nc4ccc(OC(F)(F)Cl)cc4)cc(-c4cnc5c(c4)C(=O)N(C)C5)c3n21 [T-24, (R)-N-(4-(chlorodifluoromethoxy)phenyl)-4-methyl-6-(6-methyl-5-oxo-6,7-dihydro-5H-pyrrolo[3,4-b]pyridin-3-yl)-3,4-dihydro-2H-benzo[4,5]imidazo[2,1-b][1,3]oxazine-8-carboxamide] | 7.30 to 8.30 | < 6.00 | 6.00 to 7.30 | ≥ 8.30 |
| Cn1ccc(-c2ccnc(-n3cc4c(n3)-c3cc(-c5cc(C(=O)Nc6ccc(OC(F)(F)Cl)cc6)cnc5N5CC[C@@H](F)C5)cnc3C4)n2)n1 [T-26, (R)-N-(4-(chlorodifluoromethoxy)phenyl)-6-(3-fluoropyrrolidin-1-yl)-5-(2-(4-(1-methyl-1H-pyrazol-3-yl)pyrimidin-2-yl)-2,4-dihydropyrazolo[3',4':3,4]cyclopenta[1,2-b]pyridin-7-yl)nicotinamide] | ≥ 8.30 | < 6.00 | ≥ 8.30 | ≥ 8.30 |
| O=C(Nc1ccc(OC(F)(F)Cl)cc1)c1cnc(N2CC[C@@H](F)C2)c(-c2cnc3c(c2)-c2nn(-c4ncc5ccccc5n4)cc2C3)c1 [T-29, (R)-N-(4-(chlorodifluoromethoxy)phenyl)-6-(3-fluoropyrrolidin-1-yl)-5-(2-(quinazolin-2-yl)-2,4-dihydropyrazolo[3',4':3,4]cyclopenta[1,2-b]pyridin-7-yl)nicotinamide] | ≥ 8.30 | < 6.00 | 7.30 to 8.30 | ≥ 8.30 |
| O=C(Nc1ccc(OC(F)(F)Cl)cc1)c1cnc(N2CC[C@@H](F)C2)c(-c2cnc3c(c2)-c2nn(-c4nccc(N5CCOCC5)n4)cc2C3)c1 [T-34, (R)-N-(4-(chlorodifluoromethoxy)phenyl)-6-(3-fluoropyrrolidin-1-yl)-5-(2-(4-morpholinopyrimidin-2-yl)-2,4-dihydropyrazolo[3',4':3,4]cyclopenta[1,2-b]pyridin-7-yl)nicotinamide] | ≥ 8.30 | < 6.00 | ≥ 8.30 | ≥ 8.30 |
| C[C@@H]1CN(C)Cc2nc3cc(C(=O)Nc4ccc(OC(F)(F)Cl)cc4)cc(-c4cnc5c(c4)C(=O)N(C4CC4)C5)c3n21 [T-36, (R)-N-(4-(chlorodifluoromethoxy)phenyl)-6-(6-cyclopropyl-5-oxo-6,7-dihydro-5H-pyrrolo[3,4-b]pyridin-3-yl)-2,4-dimethyl-1,2,3,4-tetrahydrobenzo[4,5]imidazo[1,2-a]pyrazine-8-carboxamide] | ≥ 8.30 | < 6.00 | < 6.00 | ≥ 8.30 |
